Measurements published in US9120764B2, “Chromene derivatives” (Consejo Superior de Investigaciones Cientificas, priority 2010, dated 2015).

Key:
[1] = target: T1, interaction between TCR, through CD3ε, and the Nck SH3.1 domain (Homo sapiens, UniProt P16333); experiment: In vitro "pull-down" assay of the TCR-Nck interaction; type: binding; settings: Jurkat lysate, GST-SH3.1(Nck) on agarose beads, Western blot densitometry; FIG. 1
T1 construct: the amino-terminal human Nck1 SH3.1 domain; made in house; host or cells: bacterial cultures (GST-SH3.1); the TCR/CD3ε is endogenous, from a lysate of human Jurkat cells
Procedure: To do so, 10 million from human T cell line Jurkat were stimulated with 10 μg/ml of an anti-CD3 antibody for 5 minutes at 37° C. After the stimulation, the cells were lysed in isotonic buffer containing 0.3% Brij96 detergent. After removing the nucleus and other cellular debris by centrifugation, cell lysate aliquots were incubated with 10 μl of agarose beads covalently bound to glutathione and bound in turn to 5 μg of purified GST-SH3.1 (Nck) protein from bacterial cultures. The GST-SH3.1(Nck) protein corresponds to a fusion protein between glutathione S-transferase (GST) and the amino-terminal human Nck1 SH3.1 domain. Each of the aliquots of the cell lysate were incubated with GST-SH3.1 (Nck) in the presence of the indicated concentrations of inhibitors. After incubation, the agarose beads were collected by centrifugation and the quantity of TCR associated with GST-SH3.1 (Nck) was assessed by SDS-PAGE and Western blot with an antibody against TCR CD3ζ subunit. The quantification of the ratio between the quantity of TCR joined to GST-SH3.1 (Nck) in the presence of each of the concentrations of inhibitors, with respect to the amount that is attached in the absence of inhibitors, was evaluated by densitometry and is expressed under each rail as a percentage (FIG. 1).

primary T lymphocytes [2] = experiment: Inhibition of the proliferation of T lymphocytes caused by stimulation of the TCR (CFSE, flow cytometry); type: cell-based, human; settings: anti-CD3 10 μg/ml, 3 days, CFSE proliferation index; FIG. 3
Procedure: The effect of compounds ECRA20, ECRA24 and CBM-1 on the ability of the TCR to induce T lymphocyte proliferation was evaluated in primary T lymphocytes obtained from blood of healthy human donors. T lymphocytes were marked permanently with the fluorescent compound Carboxyfluorescein succinimidyl ester (CFSE) and incubated for 3 days at 37° C. on 96-well plates coated with antibody anti-CD3 (10 μg/ml) in the presence of the indicated concentrations of the compounds. Proliferation index was calculated from the intensity of fluorescence of CFSE measured by flow cytometry. As the cells divide they lose CFSE fluorescence because original fluorescence is divided between the daughter cells. This way each division is followed by a […] of CFSE per cell. So it is possible to calculate the number of divisions. Proliferation index is calculated by dividing the sum of the number of divisions by the calculated number of original parent cells, which have not divided any time. Black square indicates the rate of proliferation of lymphocytes stimulated and not treated with compounds and white square lymphocytes not stimulated with anti-CD3 (FIG. 3).

primary T lymphocytes [3] = experiment: Inhibition of the production of cytokines by T lymphocytes caused by stimulation of the TCR; type: cell-based, human; settings: anti-CD3 10 μg/ml plus anti-CD28 1 μg/ml; IFNγ at 24 hours, TNFα, IL6, IL17a at 48 hours; FIG. 4
Procedure: The effect of the compounds ECRA20, ECRA24, and CBM-1 on the ability of the TCR to induce the secretion of cytokines by T lymphocytes, was evaluated in primary T lymphocytes obtained from blood of healthy human donor. Lymphocytes were stimulated with 10 μg/ml of anti-CD3 plus 1 μg/ml of anti-CD28 in the presence of the indicated quantities of the compounds and the cell supernatants were collected at 24 hours (IFNγ) and 48 hours (TNFα, IL6, and IL17a) to measure the concentration of cytokines secreted in the medium (FIG. 4).

Row | SMILES | effect on the interaction between TCR, through CD3ε, and the Nck SH3.1 domain [1] | proliferation of T lymphocytes in response to stimulation of the TCR (primary T lymphocytes [2]) | production of cytokines by T lymphocytes caused by stimulation of the TCR (primary T lymphocytes [3])
1 | Fc1ccc(C2=C(CN3CCCC3)COc3ccccc32)cc1 [ECRA20, 1-((4-(4-Fluorophenyl)-2H-cromen-3-il)methyl)pyrrolidine] | inhibitory effect | suppress the proliferation of T lymphocytes | inhibit the production of cytokines
2 | COc1ccc2c(c1)C(c1ccc(F)cc1)=C(CN1CCCC1)CO2 [ECRA24, 1-((4-(4-Fluorophenyl)-6-methoxy-2H-chromen-3-yl)methyl)pyrrolidine] | inhibitory effect | suppress the proliferation of T lymphocytes | inhibit the production of cytokines
